Measured values from patent US6197753A, “Pyranoside derivatives” (Boehringer Ingelheim KG, priority 1999, dated 2001).

Molecular target: LTB4 -receptor (Homo sapiens, UniProt Q15722)
Assay: receptor binding test
Description: The compounds according to the invention are potent LTB4 -antagonists.In particular the compound of Example 1 is obtained in vivo as a metabolite of an LTB4 -antagonistic compound and in the receptor binding test it has a Ki -value of 1.0 nM.
The activity ratios may be investigated pharmacologically and biochemically using tests such as those described in WO 93/16036, pp. 15 to 17 --the contents of which are referred to herein.

LTB4 -receptor, sequence (Q15722 whole entry): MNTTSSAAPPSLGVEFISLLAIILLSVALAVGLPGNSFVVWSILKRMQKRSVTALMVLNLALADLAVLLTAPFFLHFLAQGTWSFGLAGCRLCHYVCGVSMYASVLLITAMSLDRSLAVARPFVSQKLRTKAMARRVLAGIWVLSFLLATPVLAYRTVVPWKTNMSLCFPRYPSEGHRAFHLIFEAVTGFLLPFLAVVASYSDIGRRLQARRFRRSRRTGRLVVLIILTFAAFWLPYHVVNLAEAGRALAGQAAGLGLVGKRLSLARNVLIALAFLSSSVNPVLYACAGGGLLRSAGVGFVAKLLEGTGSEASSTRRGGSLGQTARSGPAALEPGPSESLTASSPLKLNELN

Ki: 1 nM
Structure (SMILES): CC(C)(c1ccc(OCc2cccc(COc3ccc(C(=N)N)cc3)c2)cc1)c1ccc(O[C@@H]2O[C@H](C(=O)O)[C@@H](O)[C@H](O)[C@H]2O)cc1 [Example 1, 4-[[3-[[4-[1-(4-hydroxyphenyl)-1-methylethyl]phenoxy]methyl]phenyl]methoxy]-benzenecarboximidamide-O-gluctironide]
